Laboratory results: PubChem BioAssay AID248 (DTP/NCI, 2004)
Several values for one entry are separate records, joined by “and”; a condition that tells them apart may be missing. Identical values can stand only once. Inconclusive results and toxic doses are left out. Rule as the data show it: active = T/C of 150% or more; inactive = T/C below 125%.

System: L1210 leukemia ip in BDF1 mice, survival T/C
Assay: NCI In Vivo Anticancer Drug Screen. Data for tumor model L1210 Leukemia (intraperitoneal) in B6D2F1 (BDF1) mice
Conditions: higher = longer survival
Procedure, shortened: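 In this screen, tumor-bearing mice given compound are compared to those given vehicle, and their survival values are reported as a treated-to-control quotient.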

Measured: T/C

CC[C@]1(O)C[C@H]2CN(CCc3c([nH]c4ccccc34)[C@@](C(=O)OC)(c3cc4c(cc3OC)N(C=O)[C@H]3[C@@](O)(C(=O)OC)[C@H](OC(C)=O)[C@]5(CC)C=CCN6CC[C@]43[C@@H]65)C2)C1
inactive: endpoint: mean survival time, dose: 0.03 mg/kg/injection, schedule: Q01DX015 (ip), vehicle: saline 108 % of control | endpoint: mean survival time, dose: 0.03 mg/kg/injection, schedule: Q03HX032 (ip), vehicle: saline 107 % of control | endpoint: mean survival time, dose: 0.03 mg/kg/injection, schedule: Q## X032 (ip), vehicle: saline 107 % of control | endpoint: mean survival time, dose: 0.04 mg/kg/injection, schedule: Q03HX032 (ip), vehicle: saline 109 % of control | endpoint: mean survival time, dose: 0.04 mg/kg/injection, schedule: Q## X032 (ip), vehicle: saline 109 % of control | endpoint: mean survival time, dose: 0.05 mg/kg/injection, schedule: Q01DX005 (ip), vehicle: saline 101 % of control | endpoint: mean survival time, dose: 0.05 mg/kg/injection, schedule: Q01DX005 (iv), vehicle: saline 101 % of control | endpoint: mean survival time, dose: 0.05 mg/kg/injection, schedule: Q01DX015 (ip), vehicle: saline 108 % of control | endpoint: mean survival time, dose: 0.06 mg/kg/injection, schedule: Q01DX Z (ip), vehicle: water 105 % of control | endpoint: mean survival time, dose: 0.06 mg/kg/injection, schedule: Q## X032 (ip), vehicle: saline 113 % of control | endpoint: mean survival time, dose: 0.07 mg/kg/injection, schedule: Q03HX032 (ip), vehicle: saline 113 % of control | endpoint: mean survival time, dose: 0.08 mg/kg/injection, schedule: Q04DX002 (ip), vehicle: saline 102 % of control and 104 % of control | endpoint: mean survival time, dose: 0.1 mg/kg/injection, schedule: Q01DX005 (ip), vehicle: saline 116 % of control | endpoint: mean survival time, dose: 0.1 mg/kg/injection, schedule: Q01DX005 (iv), vehicle: saline 100 % of control | endpoint: mean survival time, dose: 0.12 mg/kg/injection, schedule: Q01DX Z (ip), vehicle: water 108 % of control | endpoint: mean survival time, dose: 0.15 mg/kg/injection, schedule: Q01DX015 (ip), vehicle: saline 114 % of control | endpoint: mean survival time, dose: 0.15 mg/kg/injection, schedule: Q04DX002 (ip), vehicle: saline 100 % of control and 105 % of control | endpoint: mean survival time, dose: 0.2 mg/kg/injection, schedule: Q01DX005 (ip), vehicle: saline 115 % of control | endpoint: mean survival time, dose: 0.2 mg/kg/injection, schedule: Q01DX005 (iv), vehicle: saline 106 % of control | endpoint: mean survival time, dose: 0.2 mg/kg/injection, schedule: Q04DX002 (ip), vehicle: saline 104 % of control | endpoint: mean survival time, dose: 0.23 mg/kg/injection, schedule: Q04DX003 (ip), vehicle: saline 110 % of control | endpoint: mean survival time, dose: 0.25 mg/kg/injection, schedule: Q01DX Z (ip), vehicle: water 115 % of control | endpoint: mean survival time, dose: 0.39 mg/kg/injection, schedule: Q04DX002 (ip), vehicle: saline 110 % of control | endpoint: mean survival time, dose: 0.4 mg/kg/injection, schedule: Q01DX005 (ip), vehicle: saline 105 % of control | endpoint: mean survival time, dose: 0.4 mg/kg/injection, schedule: Q01DX005 (iv), vehicle: saline 100 % of control | endpoint: mean survival time, dose: 0.5 mg/kg/injection, schedule: Q01DX009 (ip), vehicle: saline 105 % of control | endpoint: mean survival time, dose: 0.5 mg/kg/injection, schedule: Q01DX Z (ip), vehicle: saline 97 % of control | endpoint: mean survival time, dose: 0.5 mg/kg/injection, schedule: Q01DX Z (ip), vehicle: water 108 % of control | endpoint: mean survival time, dose: 0.5 mg/kg/injection, schedule: Q04DX004 (ip), vehicle: saline 110 % of control | endpoint: mean survival time, dose: 0.75 mg/kg/injection, schedule: Q01DX015 (ip), vehicle: saline 113 % of control | endpoint: mean survival time, dose: 0.8 mg/kg/injection, schedule: Q01DX001 (ip), vehicle: saline 115 % of control | endpoint: mean survival time, dose: 0.8 mg/kg/injection, schedule: Q01DX005 (iv), vehicle: saline 116 % of control | endpoint: mean survival time, dose: 0.8 mg/kg/injection, schedule: Q01DX015 (ip), vehicle: saline 108 % of control | endpoint: mean survival time, dose: 1.0 mg/kg/injection, schedule: Q01DX Z (ip), vehicle: water 95 % of control and 99 % of control | endpoint: mean survival time, dose: 1.0 mg/kg/injection, schedule: Q04DX004 (ip), vehicle: saline 115 % of control | endpoint: mean survival time, dose: 1.12 mg/kg/injection, schedule: Q01DX015 (ip), vehicle: saline 105 % of control | endpoint: mean survival time, dose: 1.5 mg/kg/injection, schedule: Q01DX001 (ip), vehicle: water 109 % of control and 112 % of control | endpoint: mean survival time, dose: 1.5 mg/kg/injection, schedule: Q04DX002 (ip), vehicle: saline 116 % of control | endpoint: mean survival time, dose: 6.0 mg/kg/injection, schedule: Q01DX001 (ip), vehicle: water 107 % of control | endpoint: mean survival time, dose: 3.2 micrograms/kg/injection, schedule: Q01DX015 (ip), vehicle: saline 94 % of control | endpoint: mean survival time, dose: 6.3 micrograms/kg/injection, schedule: Q01DX015 (ip), vehicle: saline 97 % of control | endpoint: mean survival time, dose: 11.0 micrograms/kg/injection, schedule: Q01DX009 (ip), vehicle: saline 102 % of control and 109 % of control | endpoint: mean survival time, dose: 12.5 micrograms/kg/injection, schedule: Q01DX015 (ip), vehicle: saline 98 % of control | endpoint: mean survival time, dose: 15.6 micrograms/kg/injection, schedule: Q03HX008 (ip), vehicle: clinical formulation 104 % of control | endpoint: mean survival time, dose: 15.6 micrograms/kg/injection, schedule: Q03HX016 (ip), vehicle: clinical formulation 100 % of control | endpoint: mean survival time, dose: 15.6 micrograms/kg/injection, schedule: Q03HX024 (ip), vehicle: clinical formulation 102 % of control | endpoint: mean survival time, dose: 23.0 micrograms/kg/injection, schedule: Q01DX009 (ip), vehicle: saline 98 % of control and 100 % of control | endpoint: mean survival time, dose: 25.0 micrograms/kg/injection, schedule: Q01DX015 (ip), vehicle: saline 112 % of control | endpoint: mean survival time, dose: 31.2 micrograms/kg/injection, schedule: Q01DX009 (ip), vehicle: clinical formulation 102 % of control | endpoint: mean survival time, dose: 31.2 micrograms/kg/injection, schedule: Q03HX008 (ip), vehicle: clinical formulation 106 % of control | endpoint: mean survival time, dose: 31.2 micrograms/kg/injection, schedule: Q03HX016 (ip), vehicle: clinical formulation 105 % of control | endpoint: mean survival time, dose: 47.0 micrograms/kg/injection, schedule: Q01DX009 (ip), vehicle: saline 109 % of control and 114 % of control | endpoint: mean survival time, dose: 50.0 micrograms/kg/injection, schedule: Q01DX015 (ip), vehicle: saline 113 % of control | endpoint: mean survival time, dose: 62.5 micrograms/kg/injection, schedule: Q03HX008 (ip), vehicle: clinical formulation 112 % of control | endpoint: mean survival time, dose: 62.5 micrograms/kg/injection, schedule: Q03HX016 (ip), vehicle: clinical formulation 105 % of control | endpoint: mean survival time, dose: 62.5 micrograms/kg/injection, schedule: Q04DX003 (ip), vehicle: clinical formulation 113 % of control | endpoint: mean survival time, dose: 100.0 micrograms/kg/injection, schedule: Q01DX015 (ip), vehicle: saline 103 % of control | endpoint: mean survival time, dose: 125.0 micrograms/kg/injection, schedule: Q01DX001 (ip), vehicle: clinical formulation 104 % of control | endpoint: mean survival time, dose: 125.0 micrograms/kg/injection, schedule: Q04DX003 (ip), vehicle: clinical formulation 115 % of control | endpoint: mean survival time, dose: 125.0 micrograms/kg/injection, schedule: Q08DX002 (ip), vehicle: clinical formulation 101 % of control | endpoint: mean survival time, dose: 200.0 micrograms/kg/injection, schedule: Q01DX015 (ip), vehicle: saline 115 % of control | endpoint: mean survival time, dose: 216.0 micrograms/kg/injection, schedule: Q04DX003 (ip), vehicle: saline 116 % of control | endpoint: mean survival time, dose: 250.0 micrograms/kg/injection, schedule: Q01DX001 (ip), vehicle: clinical formulation 106 % of control | endpoint: mean survival time, dose: 250.0 micrograms/kg/injection, schedule: Q03HX024 (ip), vehicle: clinical formulation 98 % of control | endpoint: mean survival time, dose: 250.0 micrograms/kg/injection, schedule: Q04DX003 (ip), vehicle: clinical formulation 116 % of control | endpoint: mean survival time, dose: 250.0 micrograms/kg/injection, schedule: Q08DX002 (ip), vehicle: clinical formulation 108 % of control | endpoint: mean survival time, dose: 500.0 micrograms/kg/injection, schedule: Q01DX001 (ip), vehicle: clinical formulation 113 % of control | endpoint: mean survival time, dose: 500.0 micrograms/kg/injection, schedule: Q08DX002 (ip), vehicle: clinical formulation 106 % of control | endpoint: mean survival time, dose: 600.0 micrograms/kg/injection, schedule: Q04DX003 (ip), vehicle: saline 112 % of control | endpoint: mean survival time, dose: 740.0 micrograms/kg/injection, schedule: Q01DX009 (ip), vehicle: saline 92 % of control and 102 % of control | endpoint: mean survival time, dose: 1000.0 micrograms/kg/injection, schedule: Q08DX002 (ip), vehicle: clinical formulation 108 % of control | endpoint: mean survival time, dose: 2000.0 micrograms/kg/injection, schedule: Q01DX001 (ip), vehicle: clinical formulation 116 % of control | endpoint: median survival time, dose: 0.02 mg/kg/injection, schedule: Q01DX001 (ip), vehicle: water 103 % of control | endpoint: median survival time, dose: 0.03 mg/kg/injection, schedule: Q01DX001 (ip), vehicle: water 103 % of control | endpoint: median survival time, dose: 0.05 mg/kg/injection, schedule: Q01DX001 (ip), vehicle: water 108 % of control | endpoint: median survival time, dose: 0.14 mg/kg/injection, schedule: Q01DX009 (ip), vehicle: water 114 % of control | endpoint: median survival time, dose: 0.25 mg/kg/injection, schedule: Q01DX002 (ip), vehicle: water 110 % of control | endpoint: median survival time, dose: 0.25 mg/kg/injection, schedule: Q01DX009 (ip), vehicle: water 115 % of control | endpoint: median survival time, dose: 0.4 mg/kg/injection, schedule: Q01DX001 (ip), vehicle: saline 111 % of control | endpoint: median survival time, dose: 0.4 mg/kg/injection, schedule: Q01DX009 (ip), vehicle: water 100 % of control and 103 % of control | endpoint: median survival time, dose: 0.5 mg/kg/injection, schedule: Q01DX001 (ip), vehicle: water 99 % of control and 100 % of control | endpoint: median survival time, dose: 1.0 mg/kg/injection, schedule: Q01DX001 (ip), vehicle: water 102 % of control | endpoint: median survival time, dose: 2.0 mg/kg/injection, schedule: Q01DX001 (ip), vehicle: water 116 % of control | endpoint: median survival time, dose: 2.0 mg/kg/injection, schedule: Q01DX002 (ip), vehicle: water 108 % of control
